Measured values from paper PMC10182956 (Archives of Toxicology, 2023).
Where two headings read alike, the source gives them in different places.

What was measured:
[1] = tested on: HepaRG cells; experiment: High-content imaging assay: lipid accumulation (Bodipy lipid droplets); format: cell-based; details: HepaRG 24 h; for Lipid accumulation response (in words): population level, threshold ± 2 standard deviations of the response at the two lowest concentrations; for EC (BMC, 1 SD from control): Homo sapiens, lipid accumulation, Supplementary table 3, read-out: LA: Benchmark concentration (µM) per imaging endpoint calculated with BMDS software
[2] = Published in vivo pharmacokinetics (Css, clearance); details: for hepatocyte CLint: hepatocytes (back-calculated, no incubation), in vitro intrinsic hepatic clearance calculated from in vivo clearance with formula 3, read-out: Calculated Clint (ul/min/10^6 cells); for In vivo Css (µM): calculated with Css = (Dose*F)/(Cl*dosing interval) or k0/Cl from published pharmacokinetic parameters, ref Cunningham 2007, Adedayo Adedoyin, Leon Arons 1993b
From the text: For the model evaluation, Css of selected reference chemicals were predicted using formula 1 with the same dose rate from the in vivo Css measurements. For chemicals with no in vitro intrinsic hepatic clearance and fraction unbound values available in the database included in the httk package, in silico predictions from (Sipes et al. [2017]) were loaded using load_sipes2017(). […]. The formula to calculate Clint was derived from the function calc_hepatic_clearance within the httk package. Predicted Css values were then compared to published in vivo Css values. If there was no published in vivo Css available, Css was then calculated based on published in vivo pharmacokinetic parameters using the following formula (Supplementary table 3)4 Css(mg/L)=(Dose×F)/(Cl×dosinginterval)
Supplementary table 3. Comparison of benchmark concentration and predicted Css with published pharmacokinetic values. Where indicated, in vivo derived Css values were calculated using following formula: Css = (Dose*F)/(Cl*dosing interval) or Css = k0/Cl with F = bioavailability, Cl = clearance, k0 = infusion rate and Css = steady state concentration.

[3] = tested on: HepaRG cells; details: HepaRG 24 h, population level; threshold ± 2 standard deviations of the response at the two lowest concentrations
[4] = tested on: HepaRG cells; details: HepaRG 24 h, population level; threshold ± 2 standard deviations of the response at the two lowest concentrations; remark: listed apart in the source
[5] = tested on: HepaRG cells; details: HepaRG 24 h; for Number of apoptotic cells (nuclear morphology) response (in words): population level, threshold ± 2 standard deviations of the response at the two lowest concentrations
Description: (§2) Cellular responses were quantified using a high-content imaging approach (Fig. 1). Based on cell viability assessment, concentrations below the EC50 level were tested in the high-content imaging assay. After 24 h chemical exposure, live cells were incubated with CellROX, which reflects hydroxyl radi [...

[6] = set-up: method as in Adedayo Adedoyin, Leon Arons 1993a; details: rat; plasma clearance; ref Adedayo Adedoyin, Leon Arons 1993a; cited from earlier work
[7] = set-up: method as in Literature column of Supplementary table 4; details: value added to httk database; ref Supplementary table 4; cited from earlier work
[8] = set-up: method as in Adedayo Adedoyin, Leon Arons 1993a; details: fraction unbound plasma; rat; ref Adedayo Adedoyin, Leon Arons 1993a; cited from earlier work
[9] = tested on: HepaRG cells; experiment: Cell viability assessment (WST-1 assay); format: cell-based, human; details: Homo sapiens, 24 h exposure, reference chemicals, 95% CI in brackets, read-out: EC50 µM (95% CI) from cell viability (WST-1)
From the text: Undifferentiated HepaRG cells were purchased from Biopredic international (Saint Grégoire, France). HepaRG cells have unlimited growth capacity and phenotypic stability, stable enzymatic activities over 4 weeks of cultivation, and similar metabolic function to primary human hepatocytes, and also avoid limitations of primary cells such as donor variability and phenotypic instability (Aninat et al. [2006]; Guillouzo et al. [2007]; Lambert et al. [2009]; Lübberstedt et al. [2011]; Andersson et al. [2012]). The line contains two cell types, hepatocyte-like and cholangiocyte-like cells (Parent et al. [2004]), which allows for elucidation of cell-specific toxicity (Jossé et al. [2008]). Cells were seeded at a density of approximately 27′000 cells/cm^2 into a 150 × 25 mm petri dish and were cultured for 2 weeks in William’s E medium (cat. nr.: 32,551,020, ThermoFisher Scientific, Massachusetts, USA) supplemented with 2 mM glutamine, 10% (v/v) fetal bovine serum (FBS) good forte (cat. nr.: P40-47,500, PAN-Biotech, Aidenbach, Germany), 100 U/ml penicillin and 100 µg/ml streptomycin (cat. nr.: 15,140,122, ThermoFisher Scientific, Massachusetts, USA), 5 µg/ml Gibco recombinant AOF insulin (cat. nr.: A11382II, ThermoFisher Scientific, Massachusetts, USA) and 50 µM hydrocortisone hemisuccinate (cat. nr.: H4881, Sigma-Aldrich, St. Louis, USA) at 37 °C and 5% CO2. Differentiation was induced by culturing the cells for another 2 weeks in the above mentioned medium supplemented with 1.7% DMSO. After 4 weeks in culture, differentiated HepaRG cells were seeded at a high density of approximately 227′000 cells/cm^2 (72,000 cells/well with 100 µl per well) into black 96-well plates with a clear bottom (cat.nr.: 3603, Corning, New York, USA) and maintained for 10 days. After 10 days, cells were first adapted to treatment medium (culture medium containing 0.5% DMSO and 2% FBS) for 48 h and then used for cell viability and high-content imaging analysis.
Cell viability was analyzed using the WST-1 assay which is based on the measurement of mitochondrial dehydrogenase activity (cat. nr: ab155902, Abcam, Cambridge, UK). HepaRG cells were exposed to chemicals at defined concentrations for 24 h. Triton X-100 (0.01%) was a positive control. One hour before the end of incubation period, 10 µl of WST-1 reagent was added to each well, quickly mixed by shaking the plate, and returned to the cell culture incubator (37 °C, 5% CO2). After 1 h, absorbance was measured (450 nm, reference wavelength 620 nm) using a plate reader (Infinite M200 Pro, Tecan group, Männerdorf, Switzerland). Absorbance was then subtracted from the reference wavelength, corrected for background by subtracting values measured without cells, and then normalized to the solvent control, which was set to 100%. Dose–response data were fitted using drc package (Version 3.0.1) (Ritz et al. [2015]) in R 3.6.1. Data were from at least 3 independent experiments with 6 technical replicates per condition.

[10] = IVIVE reverse dosimetry: oral equivalent dose (OED) from BMC; details: IVIVE derived median over all positive imaging endpoints; rabbit simulation (R script); Table 2
From the text: (§1) Human data were used except where otherwise stated. […]
mc_OED_MEN_LD <- calc_mc_oral_equiv(2.835, chem.cas="58-27-5", model = "3compartmentss",species = "Rabbit",return.samples = T, samples=1000, httkpop = T) mc_OED_MEN_NM <- calc_mc_oral_equiv(8.1, chem.cas="58-27-5", model = "3compartmentss",species = "Rabbit", return.samples = T, samples=1000, httkpop = T) quantile_OED_MEN_LD <- quantile(mc_OED_MEN_LD, c(0.05, 0.5, 0.95), na.rm = TRUE) quantile_OED_MEN_NM <- quantile(mc_OED_MEN_NM, c(0.05, 0.5, 0.95), na.rm = TRUE)

[11] = tested on: HepaRG cells; experiment: cells; details: Homo sapiens, 24 h, read-out: NM: Benchmark concentration (µM) per imaging endpoint calculated with BMDS software
Description: as §2

[12] = cited from earlier work
[13] = set-up: method as in Hu et al. 1996; details: fraction unbound plasma; rabbit; ref Hu et al. 1996; cited from earlier work
[14] = IVIVE reverse dosimetry: oral equivalent dose (OED) from BMC; details: IVIVE derived median over all positive imaging endpoints; rat simulation (R script); Table 2
From the text: as §1
mc_OED_WY14643_LD <- calc_mc_oral_equiv(40.98, chem.cas="50892-23-4", model = "3compartmentss",species="Rat", return.samples = T, samples=1000, httkpop = T) mc_OED_WY14643_MD <- calc_mc_oral_equiv(38.1, chem.cas="50892-23-4", model = "3compartmentss",species="Rat", return.samples = T, samples=1000, httkpop = T) mc_OED_WY14643_NM <- calc_mc_oral_equiv(386.28, chem.cas="50892-23-4", model = "3compartmentss",species="Rat", return.samples = T, samples=1000, httkpop = T)

[15] = tested on: HepaRG cells; experiment: cells; details: Homo sapiens, 24 h, read-out: MMP: Benchmark concentration (µM) per imaging endpoint calculated with BMDS software

| Compound | Lipid accumulation response (in words) [1] | In vivo Css (µM) ([2]; rat) | Mitochondrial membrane potential response (in words) [3] | Oxidative stress response (in words) [4] | Number of apoptotic cells (nuclear morphology) response (in words) [5] | LogP [7] | EC (BMC, 1 SD from control) [1] [µM] | EC (BMC) [11] [µM] | further results |
| --- | --- | --- | --- | --- | --- | --- | --- | --- | --- |
| O=c1cc(-c2ccccc2)oc2ccc3ccccc3c12 [β-naphthoflavone] | did not give rise to lipid accumulation | 2.3^3 µM | none of the hallmarks were induced | none of the hallmarks were induced | none of the hallmarks were induced | 4.4 |  |  | Lipid accumulation response (in words) ([1]; listed as BNF): not; hepatocyte CLint ([2]; rat): 23.4 µL/min/1e6 cells; In vivo clearance (L/h) [6]: 1.3 (plasma clearance) L/h; Fup [8]: 0.04 |
| CC1=CC(=O)c2ccccc2C1=O [menadione] | increased in a dose-dependent manner |  |  | unexpected negative outcomes |  | 2.2 | 2.8 | 8.1 | EC50 [9]: 59.1 µM; OED [10]: 55.4 mg/kg/day; hepatocyte CLint ([2]; rabbit): 58.3 µL/min/1e6 cells; Concentration at which increase of number of apoptotic cells (nuclear morphology) exceeded the threshold [5]: 25 µM; In vivo Css (µM) ([12]; in rabbits, reference cell empty): 12.6^4 µM; In vivo clearance ([12]; rabbit, ref Hu et al. 1996): 49.32 L/h; Fup [13]: 0.2 |
| Cc1cccc(Nc2cc(Cl)nc(SCC(=O)O)n2)c1C [WY14643] | dose-dependently increased and exceeded the threshold | 2.5^3,5 µM | MMP hyperpolarization |  | induced apoptosis |  | 41 | 386 | Lipid accumulation response (in words) ([1]; listed as WY-14693): having the potential to induce lipid accumulation; OED [14]: 1.7 mg/kg/day; EC (BMC, 1 SD from control) [15]: 38.1 µM |
